Results on 18 molecules are retold here after PubChem BioAssay (NCI).

The structures appear in SMILES notation. Several values for one entry are separate records, joined by “and”; a condition that tells them apart may be missing. Identical values can stand only once.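 Growth conditions: 96-well plates. Treatment: test compound, 48 hours, 5 concentrations. Analysis: linear interpolation between bracketing concentrations; unreached endpoints set to highest concentration. Here, GI50 denotes the concentration required for 50% inhibition of growth. TGI is the concentration that stops growth completely.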 Some results are limits rather than exact numbers.

The subject of the first experiment is T-47D breast. Briefly: growth of human tumour cells (NCI), 48 h.
For `CC(C)CNc1nc(-c2ccccc2Cl)nc2ccccc12`, the GI50 is 35.2 µM and the TGI is over 100 µM.
For `CN(C)CCOc1ccc([N+](=O)[O-])c2cccnc12`, the TGI was over 100 µM.
For `C=C(C)[C@@H]1CC[C@]2(COCCCN)CC[C@]3(C)[C@H](CC[C@@H]4[C@@](C)(CCCNCCCN)[C@H](C(=C)C)CC[C@]43C)[C@@H]12`, the GI50 was 1.78 µM and the TGI came to 3.63 µM.
`O=NNc1ccc2ccccc2n1` gave a TGI of over 100 µM.
`CC(C)(C)c1cc([N+](=O)[O-])cc([N+](=O)[O-])c1O` showed a TGI of over 10 µM.
For `COc1ccc2c(c1)C(=O)/C(=C/c1cccc(OCC(=O)c3ccccc3)c1)O2`, the GI50 is 2.04 µM and the TGI is 4.88 µM.
For `O=C1NC(=S)S/C1=C/c1ccc2c(c1)OCO2`, in that order: over 100 µM and over 100 µM.
As to `O=C(O)CCCc1ccc2ccc3ccccc3c2c1`, the TGI was over 100 µM.
As to `CC(=O)OC1OC([C@H]2c3cccc(O)c3C(=O)c3c(O)cc(C)cc32)C(O)C(O)C1O` (some centres undefined), the GI50 was 0.0319 µM and the TGI was over 41.1 µM.
As for `N/N=C\c1c2ccccc2c(=O)n2c1oc1ccccc12`, the GI50 is 20.5 µM and the TGI worked out at 39.9 µM.
Molecule `CSC(SC)(C(=O)O)c1cc(-c2c(Cl)cccc2Cl)no1` registered a TGI of over 100 µM.

The subject of the next experiment is MCF7 breast. Put plainly: growth of human tumour cells (NCI), 48 h.
On to `C[C@]12CCc3sc(Nc4ccc(OC(F)(F)F)cc4)nc3C1=CC[C@@H]1[C@@H]2CC[C@]2(C)C(=O)CC[C@@H]12`, for which the GI50 was 1.82 µM and the TGI came out at 4.14 µM.
For `CCN1C(=O)c2ccc3c4c(ccc(c24)C1=O)C(=O)N(CCCNCc1ccccc1OC)C3=O`, in that order: 0.205 µM and 0.584 µM.
For `O=C(/C=C/c1ccccc1)Nc1ncc(Cc2ccccc2Cl)s1` the same measures were 0.311 µM and over 100 µM.
For `CN(c1ccc(NC(=O)Nc2c(Cl)cccc2Cl)cc1)c1ccnc(Nc2cccc(CS(C)(=O)=O)c2)n1` the same measures were 2.82 µM and over 14.3 µM.
As for `CCCCCCCCCCCCCCCCCCOC[C@H](COP(=O)(O)O[C@H]1[C@H](O)[C@@H](O)[C@H](O)C[C@H]1O)OC`, the GI50 is > 100 µM and 17.3 µM; the TGI was > 100 µM and 32.2 µM.
For the molecule `CC(C)CNc1nc(-c2ccccc2Cl)nc2ccccc12`, the GI50 is 22.6 µM and the TGI worked out at 47.7 µM.
`CN(C)CCOc1ccc([N+](=O)[O-])c2cccnc12` displayed a TGI of over 100 µM.
Consider `C=C(C)[C@@H]1CC[C@]2(COCCCN)CC[C@]3(C)[C@H](CC[C@@H]4[C@@](C)(CCCNCCCN)[C@H](C(=C)C)CC[C@]43C)[C@@H]12`, for which the GI50 is 1.59 µM and the TGI was found to be 3.22 µM.
`O=NNc1ccc2ccccc2n1` displayed a TGI of over 100 µM.
As to `CC(C)(C)c1cc([N+](=O)[O-])cc([N+](=O)[O-])c1O`, the TGI was over 10 µM.
Consider `COc1ccc2c(c1)C(=O)/C(=C/c1cccc(OCC(=O)c3ccccc3)c1)O2`, for which the GI50 was 4.2 µM and the TGI turned out to be 33.7 µM.
Turning to `O=C1NC(=S)S/C1=C/c1ccc2c(c1)OCO2`, the GI50 is over 100 µM and the TGI was over 100 µM.
The molecule `O=C(O)CCCc1ccc2ccc3ccccc3c2c1` gave a TGI of over 100 µM.
Turning to `CC(=O)OC1OC([C@H]2c3cccc(O)c3C(=O)c3c(O)cc(C)cc32)C(O)C(O)C1O` (some centres undefined), the GI50 is 0.287 µM and the TGI worked out at 0.803 µM.
`CSC(SC)(C(=O)O)c1cc(-c2c(Cl)cccc2Cl)no1` registered a TGI of over 100 µM.

The next experiment deals with OVCAR-4 ovarian. Briefly: growth of human tumour cells (NCI), 48 h.
For the molecule `C[C@]12CCc3sc(Nc4ccc(OC(F)(F)F)cc4)nc3C1=CC[C@@H]1[C@@H]2CC[C@]2(C)C(=O)CC[C@@H]12`, the GI50 is 3.31 µM and the TGI turned out to be 25.8 µM.
For `CCN1C(=O)c2ccc3c4c(ccc(c24)C1=O)C(=O)N(CCCNCc1ccccc1OC)C3=O`, in that order: 0.152 µM and 0.345 µM.
For `O=C(/C=C/c1ccccc1)Nc1ncc(Cc2ccccc2Cl)s1` the same measures were over 100 µM and over 100 µM.
As to `CN(c1ccc(NC(=O)Nc2c(Cl)cccc2Cl)cc1)c1ccnc(Nc2cccc(CS(C)(=O)=O)c2)n1`, the GI50 was 3.12 µM and the TGI came out at 12.5 µM.
As for `CCCCCCCCCCCCCCCCCCOC[C@H](COP(=O)(O)O[C@H]1[C@H](O)[C@@H](O)[C@H](O)C[C@H]1O)OC`, the GI50 was > 100 µM and 16 µM; the TGI is > 100 µM and 36.8 µM.
Consider `CN(C)C/C=C/C(=O)Nc1ccc(C(=O)N[C@@]2(C)CCC[C@@H](Nc3ncc(Cl)c(-c4c[nH]c5ccccc45)n3)C2)nc1`, for which the GI50 was 0.0141 µM and the TGI turned out to be 0.915 µM.
`COCCOC(=O)C1=C(O)c2ccccc2S(=O)(=O)N1C`: the TGI was over 100 µM.
For the molecule `CC(C)CNc1nc(-c2ccccc2Cl)nc2ccccc12`, the GI50 is 17.1 µM and the TGI was determined as 50.5 µM.
For `C=C(C)[C@@H]1CC[C@]2(COCCCN)CC[C@]3(C)[C@H](CC[C@@H]4[C@@](C)(CCCNCCCN)[C@H](C(=C)C)CC[C@]43C)[C@@H]12` the same measures were 1.72 µM and 3.17 µM.
In turn, `O=NNc1ccc2ccccc2n1` yielded a TGI of over 100 µM.
Same read-out and setting: in the case of `CC(C)(C)c1cc([N+](=O)[O-])cc([N+](=O)[O-])c1O` it was over 10 µM.
As for `COc1ccc2c(c1)C(=O)/C(=C/c1cccc(OCC(=O)c3ccccc3)c1)O2`, the GI50 was 2.72 µM and the TGI turned out to be 6.37 µM.
`O=C(O)CCCc1ccc2ccc3ccccc3c2c1`: the TGI was over 100 µM.
On to `CC(=O)OC1OC([C@H]2c3cccc(O)c3C(=O)c3c(O)cc(C)cc32)C(O)C(O)C1O` (some centres undefined), for which the GI50 is under 0.0402 µM and the TGI was over 89.2 µM.
With `N/N=C\c1c2ccccc2c(=O)n2c1oc1ccccc12`, the GI50 is 13.1 µM and the TGI was over 100 µM.
`CSC(SC)(C(=O)O)c1cc(-c2c(Cl)cccc2Cl)no1` yielded a TGI of over 100 µM.
